Source: US20260116922A1 (UNIVERSITAET WIEN, priority 2021, published 2026)
*1 amine or outer side, *2 acyl side, *3 side chain or, on linkers, in order; H or OH if unused. Where a SMILES comes first, the peptide text is derived from it. Bridges are numbered along the chain shown (N, C = ends). [ ]: non-standard residue; d: D form. The star is where a group is joined. N(4-F-Bzl)Gly = O=C(O)CNCc1ccc(F)cc1; αMeY = C[C@](N)(Cc1ccc(O)cc1)C(=O)O; Gly(cPent) = N[C@H](C(=O)O)C1CCCC1; αMeL = CC(C)C[C@](C)(N)C(=O)O; αMeV = CC(C)[C@](C)(N)C(=O)O; Thz = O=C(O)[C@@H]1CSCN1; X1 = O=C(CCC[*:2])[*:1]; Dap = NC[C@H](N)C(=O)O; Piv = CC(C)(C)C(=O)*

Tested on: not listed separately
Test: Stability in simulated intestinal fluid (SIF)
Details: relative stability compared with SIF stability of oxytocin (8±1 min); SIF pH 6.8, pancreatin, 37° C.
Description: (§1) Simulated intestinal fluid (SIF). […] The solution was centrifuged, and syringe filtered before use.
(§2) Stability assay procedure. Stock solutions (1 mM) of test peptides were prepared in ddH2O. […] The peptide stock solution (30 μL) was added to the fluid, the mixture was vortexed and incubated at 37° C. […] All samples were centrifuged (5 min, 16,000×g) and stored at 4° C. before analysis.
(§3) RP-HPLC-UV(-MS) analysis of stability samples. […] 30 μL sample were injected on a Kromasil Classic C1S HPLC column (2.1×150 mm, 100 Å, 5 μm) equipped with a guard column (C18, 100 Å, 5 μm, 2.1 mm). […] Solvent A: 0.1% TFA in ddH2O. Solvent B: 0.08% TFA in ACN.
(§4) Data analysis. […] Peak areas (mAU×min) at individual time points were normalized to the mean value of time point zero (y(t0)=100%). To calculate compound half-lives (t1/2), a one-phase exponential decay function was fitted to normalized data points via a nonlinear regression in GraphPad Prism (Version 9) (GraphPad Software Inc., La Jolla, California, USA). The following constraints were applied: (i) y(t0) constant equal to 100, (ii) plateau constant equal to 0.

| Compound | SIF stability [fold OT] |
| --- | --- |
| COc1ccc(C[C@@H]2NC(=O)CCCSC[C@@H](C(=O)N3CCC[C@H]3C(=O)N[C@@H](CNC(C)=O)C(=O)NCC(N)=O)NC(=O)[C@H](CC(N)=O)NC(=O)[C@H](CCC(N)=O)NC(=O)[C@H](C3CCCC3)NC2=O)cc1 [Compound 14] (Y(Me)[Gly(cPent)]QNCP[Dap](Ac)G-NH2; linker N-5 via X1) | >100 fold OT |
| CC[C@H](C)[C@@H]1NC(=O)[C@H](Cc2ccc(OC)cc2)NC(=O)CCCSC[C@@H](C(=O)N(CC(=O)N[C@@H](CNC(C)=O)C(=O)NCC(N)=O)Cc2ccc(F)cc2)NC(=O)[C@H](CC(N)=O)NC(=O)[C@H](CCC(N)=O)NC1=O [Compound 8] (Y(Me)IQNC[N(4-F-Bzl)Gly][Dap](Ac)G-NH2; linker N-5 via X1) | 10-100 fold OT |
| CC[C@H](C)[C@@H]1NC(=O)[C@H](Cc2ccc(OC)cc2)NC(=O)CCCSC[C@@H](C(=O)N2CCC[C@H]2C(=O)N[C@@](C)(CC(C)C)C(=O)NCC(N)=O)NC(=O)[C@H](CC(N)=O)NC(=O)[C@H](CCC(N)=O)NC1=O [Compound 7] (Y(Me)IQNCP[αMeL]G-NH2; linker N-5 via X1) | >100 fold OT |
| CC(=O)NC[C@H](NC(=O)[C@@H]1CCCN1C(=O)[C@@H]1CSCCCC(=O)N[C@@H](Cc2ccc(O)cc2)C(=O)N[C@@](C)(C(C)C)C(=O)N[C@@H](CCC(N)=O)C(=O)N[C@@H](CC(N)=O)C(=O)N1)C(=O)NCC(N)=O [Compound 15] (Y[αMeV]QNCP[Dap](Ac)G-NH2; linker N-5 via X1) | >100 fold OT |
| COc1ccc(C[C@@H]2NC(=O)CCCSC[C@@H](C(=O)N3CSC[C@H]3C(=O)N[C@@H](CCCCNC(C)=O)C(=O)NCC(N)=O)NC(=O)[C@H](CC(N)=O)NC(=O)[C@H](CCC(N)=O)NC(=O)[C@H](C3CCCC3)NC2=O)cc1 [Compound 23] (Y(Me)[Gly(cPent)]QNC[Thz]K(Ac)G-NH2; linker N-5 via X1) | >100 fold OT |
| COc1ccc(C[C@@H]2NC(=O)CCCSC[C@@H](C(=O)N3CCC[C@H]3C(=O)N[C@@H](CCCCNC(C)=O)C(=O)NCC(N)=O)NC(=O)[C@H](CC(N)=O)NC(=O)[C@H](CCC(N)=O)NC(=O)[C@H](C3CCCC3)NC2=O)cc1 [Compound 21] (Y(Me)[Gly(cPent)]QNCPK(Ac)G-NH2; linker N-5 via X1) | >100 fold OT |
| CC[C@H](C)[C@@H]1NC(=O)[C@](C)(Cc2ccccc2)NC(=O)CCCSC[C@@H](C(=O)N2CCC[C@H]2C(=O)N[C@@H](CNC(C)=O)C(=O)NCC(N)=O)NC(=O)[C@H](CC(N)=O)NC(=O)[C@H](CCC(N)=O)NC1=O [Compound 10] | >100 fold OT |
| CC(=O)NCCCC[C@H](NC(=O)[C@@H]1CSCN1C(=O)[C@@H]1CSCCCC(=O)N[C@@H](Cc2ccc(O)cc2)C(=O)N[C@@](C)(C(C)C)C(=O)N[C@@H](CCC(N)=O)C(=O)N[C@@H](CC(N)=O)C(=O)N1)C(=O)NCC(N)=O [Compound 20] (Y[αMeV]QNC[Thz]K(Ac)G-NH2; linker N-5 via X1) | > 100 fold OT |
| CC[C@H](C)[C@@H]1NC(=O)[C@](C)(Cc2ccc(O)cc2)NC(=O)CCCSC[C@@H](C(=O)N2CCC[C@H]2C(=O)N[C@@H](CNC(C)=O)C(=O)NCC(N)=O)NC(=O)[C@H](CC(N)=O)NC(=O)[C@H](CCC(N)=O)NC1=O [Compound 9] ([αMeY]IQNCP[Dap](Ac)G-NH2; linker N-5 via X1) | >100 fold OT |
| CC(=O)NCCCC[C@H](NC(=O)[C@@H]1CSCN1C(=O)[C@@H]1CSCCCC(=O)N[C@@](C)(Cc2ccc(O)cc2)C(=O)N[C@@H](C2CCCC2)C(=O)N[C@@H](CCC(N)=O)C(=O)N[C@@H](CC(N)=O)C(=O)N1)C(=O)NCC(N)=O [Compound 18] ([αMeY][Gly(cPent)]QNC[Thz]K(Ac)G-NH2; linker N-5 via X1) | >100 fold OT |
| CC[C@H](C)[C@@H]1NC(=O)[C@H](Cc2ccc(OC)cc2)NC(=O)CCCSC[C@@H](C(=O)N2CCC[C@H]2C(=O)N[C@@H](CNC(=O)C(C)(C)C)C(=O)NCC(N)=O)NC(=O)[C@H](CC(N)=O)NC(=O)[C@H](CCC(N)=O)NC1=O [Compound 13] (Y(Me)IQNCP[Dap](Piv)G-NH2; linker N-5 via X1) | > 100 fold OT |
| CC[C@H](C)[C@@H]1NC(=O)[C@H](Cc2ccc(C(F)(F)F)cc2)NC(=O)CCCSC[C@@H](C(=O)N2CCC[C@H]2C(=O)N[C@@H](CNC(C)=O)C(=O)NCC(N)=O)NC(=O)[C@H](CC(N)=O)NC(=O)[C@H](CCC(N)=O)NC1=O [Compound 12] | >100 fold OT |

More lines, now with the values ahead:

| SIF stability [fold OT] | Compound |
| --- | --- |
| >100 fold OT | CC[C@H](C)[C@@H]1NC(=O)[C@H](Cc2ccc(OC)cc2)NC(=O)CCCSC[C@@H](C(=O)N2CCC[C@H]2C(=O)N[C@@H](CCCCNC(C)=O)C(=O)NCC(N)=O)NC(=O)[C@H](CC(N)=O)NC(=O)[C@H](CCC(N)=O)NC1=O [Compound 5] (Y(Me)IQNCPK(Ac)G-NH2; linker N-5 via X1) |
| 10-100 fold OT | CC[C@H](C)[C@@H]1NC(=O)[C@H](Cc2ccc(O)cc2)NC(=O)[C@@H](N)CSSC[C@@H](C(=O)N2CCC[C@H]2C(=O)N[C@@H](CNC(C)=O)C(=O)NCC(N)=O)NC(=O)[C@H](CC(N)=O)NC(=O)[C@H](CCC(N)=O)NC1=O [Compound 2] |
| 10-100 fold OT | CC[C@H](C)[C@@H]1NC(=O)[C@H](Cc2ccc(O)cc2)NC(=O)[C@@H](N)CSSC[C@@H](C(=O)N2CCC[C@H]2C(=O)N[C@@](C)(CC(C)C)C(=O)NCC(N)=O)NC(=O)[C@H](CC(N)=O)NC(=O)[C@H](CCC(N)=O)NC1=O [Compound 3] |
| >100 fold OT | CC[C@H](C)[C@@H]1NC(=O)[C@](C)(Cc2ccc(O)cc2)NC(=O)CCCSC[C@@H](C(=O)N2CSC[C@H]2C(=O)N[C@@H](CCCCNC(C)=O)C(=O)NCC(N)=O)NC(=O)[C@H](CC(N)=O)NC(=O)[C@H](CCC(N)=O)NC1=O [Compound 17] ([αMeY]IQNC[Thz]K(Ac)G-NH2; linker N-5 via X1) |
| >100 fold OT | CC[C@H](C)[C@@H]1NC(=O)[C@H](Cc2ccc(OC)cc2)NC(=O)CCCSC[C@@H](C(=O)N2CCC[C@H]2C(=O)N[C@@H](CNC(C)=O)C(=O)NCC(N)=O)NC(=O)[C@H](CC(N)=O)NC(=O)[C@H](CCC(N)=O)NC1=O [Compound 6] (Y(Me)IQNCP[Dap](Ac)G-NH2; linker N-5 via X1) |
| >100 fold OT | CC[C@H](C)[C@@H]1NC(=O)[C@](C)(Cc2ccc(O)cc2)NC(=O)CCCSC[C@@H](C(=O)N2CCC[C@H]2C(=O)N[C@@H](CCCCNC(C)=O)C(=O)NCC(N)=O)NC(=O)[C@H](CC(N)=O)NC(=O)[C@H](CCC(N)=O)NC1=O [Compound 16] ([αMeY]IQNCPK(Ac)G-NH2; linker N-5 via X1) |
| 10-100 fold OT | CC[C@H](C)[C@@H]1NC(=O)[C@H](Cc2ccc(O)cc2)NC(=O)[C@@H](N)CSSC[C@@H](C(=O)N2CCC[C@H]2C(=O)N[C@@H](CCCCNC(C)=O)C(=O)NCC(N)=O)NC(=O)[C@H](CC(N)=O)NC(=O)[C@H](CCC(N)=O)NC1=O [Compound 1] |
| 10-100 fold OT | CC[C@H](C)[C@@H]1NC(=O)[C@H](Cc2ccc(C)cc2)NC(=O)CCCSC[C@@H](C(=O)N2CCC[C@H]2C(=O)N[C@@H](CNC(C)=O)C(=O)NCC(N)=O)NC(=O)[C@H](CC(N)=O)NC(=O)[C@H](CCC(N)=O)NC1=O [Compound 11] |
| >100 fold OT | CC(=O)NCCCC[C@H](NC(=O)[C@@H]1CCCN1C(=O)[C@@H]1CSCCCC(=O)N[C@@H](Cc2ccc(O)cc2)C(=O)N[C@@](C)(C(C)C)C(=O)N[C@@H](CCC(N)=O)C(=O)N[C@@H](CC(N)=O)C(=O)N1)C(=O)NCC(N)=O [Compound 19] (Y[αMeV]QNCPK(Ac)G-NH2; linker N-5 via X1) |
| >100 fold OT | CC[C@H](C)[C@@H]1NC(=O)[C@H](Cc2ccc(OC)cc2)NC(=O)CCCSC[C@@H](C(=O)N2CSC[C@H]2C(=O)N[C@@H](CCCCNC(C)=O)C(=O)NCC(N)=O)NC(=O)[C@H](CC(N)=O)NC(=O)[C@H](CCC(N)=O)NC1=O [Compound 22] (Y(Me)IQNC[Thz]K(Ac)G-NH2; linker N-5 via X1) |
| 10-100 fold OT | CC[C@H](C)[C@@H]1NC(=O)[C@H](Cc2ccc(O)cc2)NC(=O)[C@@H](N)CSSC[C@@H](C(=O)N2CCC[C@H]2C(=O)N[C@H](CC(=O)NCC(N)=O)CC(C)C)NC(=O)[C@H](CC(N)=O)NC(=O)[C@H](CCC(N)=O)NC1=O [Compound 4] |

Tested on: not listed separately
Test: in vitro
Details: simulated gi fluid, pH 6.8
Description: as §1, §2, §3, §4

| half-life at 50 µM [min] | Compound |
| --- | --- |
| 8 ± 1 | CC[C@H](C)[C@@H]1NC(=O)[C@H](Cc2ccc(O)cc2)NC(=O)[C@@H](N)CSSC[C@@H](C(=O)N2CCC[C@H]2C(=O)N[C@@H](CC(C)C)C(=O)NCC(N)=O)NC(=O)[C@H](CC(N)=O)NC(=O)[C@H](CCC(N)=O)NC1=O [OT, oxytocin] |

Tested on: not listed separately
Test: in vitro
Details: simulated gi fluid

| half-life [min] | Compound |
| --- | --- |
| > 1440 | CC[C@H](C)[C@@H]1NC(=O)[C@H](Cc2ccc(O)cc2)NC(=O)[C@@H](N)CSSC[C@@H](C(=O)N2CCC[C@H]2C(=O)N[C@@H](CC(C)C)C(=O)NCC(N)=O)NC(=O)[C@H](CC(N)=O)NC(=O)[C@H](CCC(N)=O)NC1=O [OT, oxytocin] |

Target: T1, Human OTR (Homo sapiens, UniProt P30559)
T1 construct: expressed in transfected cells; host or cells: HEK293 (stably transfected, G418 selection)
T1 sequence (P30559 1-389): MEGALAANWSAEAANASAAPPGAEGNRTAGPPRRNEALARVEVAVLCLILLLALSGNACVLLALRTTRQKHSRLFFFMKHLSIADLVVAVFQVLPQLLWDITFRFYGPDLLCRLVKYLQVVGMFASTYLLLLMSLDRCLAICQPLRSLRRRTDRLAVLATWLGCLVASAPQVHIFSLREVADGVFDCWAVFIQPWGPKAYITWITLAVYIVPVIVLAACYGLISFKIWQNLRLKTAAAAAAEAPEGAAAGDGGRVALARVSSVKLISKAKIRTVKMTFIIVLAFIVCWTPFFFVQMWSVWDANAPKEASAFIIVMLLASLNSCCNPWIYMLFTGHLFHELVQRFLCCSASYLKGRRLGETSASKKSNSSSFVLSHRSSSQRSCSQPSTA
Test: IP-1 accumulation in HEK293 cells stably expressing hOTR-GFP
Assay type: cell-based
Details: 1 h stimulation at 37° C., normalized to maximum OT response
Description: Cell culture for functional assays.
Measurement of inositol phosphate one (IP-1) accumulation. HEK293 cells were cultured in DMEM supplemented with 10% FBS and penicillin/streptomycin (100 U mL^−1) at 37° C. and 5% CO2. Cells were transferred into white opaque 384-well plates (CellStar®, Greiner, Austria) at ˜10,000 cells per well 48 h prior to measurement. Quantitative measurements of receptor-mediated IP-1 were performed by competitive immunoassay utilizing the IP-One assay kit [9]. HEK293 cells were assayed as per the manufacturer's protocol. Briefly, at the time of analysis, the culture media was removed and replaced with IP-1 stimulation buffer. Cells were allowed to equilibrate in the stimulation buffer at 37° C. for 15 min, followed by addition of peptide ligands (to final concentrations of 1 μM-10 μM) and subsequent stimulation for 1 h at 37° C. The stimulation was terminated by lysis and the simultaneous addition of homogenous time-resolved fluorescence resonance energy transfer reagents. The lysates were incubated for 1 h at 25° C. Fluorescence emission measurements at 620 nm and 665 nm were performed using a Spark Multimode plate reader (Tecan, Switzerland) at an excitation wavelength of 340 nm. Results were analyzed as a ratio of fluorescence intensities of 665 nm to 620 nm. […]

| EC50 [nM] | Compound |
| --- | --- |
| > 500 | CC[C@H](C)[C@@H]1NC(=O)[C@H](Cc2ccc(OC)cc2)NC(=O)CCCSC[C@@H](C(=O)N(CC(=O)N[C@@H](CNC(C)=O)C(=O)NCC(N)=O)Cc2ccc(F)cc2)NC(=O)[C@H](CC(N)=O)NC(=O)[C@H](CCC(N)=O)NC1=O [Compound 8] (Y(Me)IQNC[N(4-F-Bzl)Gly][Dap](Ac)G-NH2; linker N-5 via X1) |
